Consider ten compounds from patent US8415497B2, “N-halogenated amino compounds and derivatives” (Novabay Pharmaceuticals, Inc., priority 2006, dated 2013).

Common to all, as to assay type: cell-based
One series has as its system cells. Put plainly: Cell toxicity, XTT assay. The source says: (§1) The results of our discovery provide support for antimicrobial activity of 3-(4-chlorophenyl)-2-(dichloroamino)-2-methylpropane-1-sulfonic acid in 0.9% saline at pH 3.5. […] In contrast, cell toxicity is seen at a 1000-fold higher range in the mM range.
On the technique in general: Tetrazolium dyes change colour on reduction, which living cells bring about.

The nature of series [1]: Concentration dependence of antimicrobial activity. The following applies: 0.9% saline at pH 3.5.
From the text: as §1

In series [2] the test system is Staphylococcus aureus (MCC 91731). Put plainly: Antimicrobial activity, minimum biocidal concentration. The following applies: S. aureus MCC 91731 (*), 1 h. Here is the method:
(§2) To determine antimicrobial activity, we use Escherichia coli (ATCC 25922), Staphylococcus aureus (ATCC 29213), Pseudomonas aeruginosa (ATCC 27853), and Candida albicans (ATCC 10231) in primary screening. In addition, we use Staphylococcus aureus (MCC 91731), Pseudomonas aeruginosa (MCC 4438), and Candida albicans (MCC 50319), provided by Alcon Laboratories, Fort Worth, Tex. The microbial cultures are diluted in sterile saline pH 4 to prepare inocula. […] Bacterial plating on Petri dishes (Tryptic Soy agar or Saboraud's Dextrose agar) is performed immediately after the designated exposure after neutralization of the test article dilutions in Dey-Engley Broth. Plates are incubated at 37° C., and the numbers of bacteria are counted by direct colony count to quantitate the surviving bacteria as CFU/mL. Positive growth controls are made with sterile 0.9% saline. All compounds are tested three times. The results are tabulated to show the comparison of antimicrobial effectiveness range of the compounds.

For series [3], the system named is Pseudomonas aeruginosa (MCC 4438). The description is as above. The settings on record: P. aeruginosa MCC 4438 (#), 1 h. Here is the method: as §2, with “The microbial cultures are diluted in sterile saline pH 4 to prepare inocula.” left out
Series [4] deals with mouse fibroblast cells (ATCC CCL-1, L929). Kind of series: Cytotoxicity, WST-8 colorimetric assay. The settings on record: 60 min exposure. Here is the method:
Cytotoxicity is assessed by a colorimetric assay system using the Dojindo™ cell counting kit containing 2-(2-methoxy-4-nitrophenyl)-3-(4-nitrophenyl)—S—(2,4-disulfophenyl)-2H-tetrazolium, monosodium salt (WST-8). In this assay, the WST-8 reagent is bioreduced by cellular dehydrogenases to a formazan product that is highly soluble in tissue culture medium. The orange formazan, which is produced only by live cells, is a direct measure of cell viability and can be read spectrophotometrically (for example, evaluation of a soluble tetrazolium/formazan assay for cell growth and drug sensitivity in culture using human and other tumor cell lines is described by Scudiero D A, Shoemaker R A H, Paul K D, Monks A, Tierney S, Nofziger T H, Currens M J, Seniff D, Boyd M R. Cancer Res. 1988 Sep. 1; 48(17):4827-33). Similar approaches for determining the cell viability are known in the art.
In a standard assay, mouse fibroblast cells (ATCC CCL-1, L929), are cultured in Minimum Essential Medium, α-medium supplemented with 10% heat inactivated fetal bovine serum, L-glutamine, penicillin and streptomycin. Cells are trypsinized and counted under the microscope and seeded at 1.5×10^4 total cells per 100 μL per well of a flat-bottom 96-well plate in order to achieve ˜80% confluence after overnight incubation at 37° C. On the day of the assay, the tissue culture medium is removed and replaced with 30 μL of fresh medium.
Test articles are prepared as 2-fold serial dilutions and 170 μL, of each dilution is added into each of 4-wells (total volume per well=200 μL). The test plate is then returned to the 37° C. incubator for 60 min. Immediately after the exposed time, test article from each well is replaced with 200 μL of fresh media. Plates are incubated at 37° C. for 18-20 hours. The following day growth medium is replaced with 100 μL/well of fresh medium containing 10/100 μL WST-8 reagent. Cells are incubated under growth conditions (5% CO2 at 37° C. humidified incubator), protected from light, until color development is achieved (usually 1-4 hours). Absorbance is read at 450 nm with reference wavelength at 750 nm using Molecular Device SpectraMax M5 plate reader. Untreated or vehicle only treated cells receiving WST-8 reagent serve as positive cell proliferation controls.
The CT50 value for each compound was calculated from the absorbance values (A450-750) and is defined as the concentration of test article that results in survival of 50% of the cells following treatment. The absorbance A450-750 from each well of untreated cells and from each well within the dilution series was measured. To calculate the CT50 for each compound, all compound concentrations were first log-transformed using GraphPad Prism4 (ver 4.03) software. Next, a non-linear regression (curve fit) analysis was performed on all the absorbance data measured from the dilution series, including the absorbance data obtained from wells of the untreated control cells. For each dilution within the dilution series, an average A450-750 was calculated from the four replicate wells. The average A450-750 data were plotted on a y-axis against the log-transformed compound concentration on the x-axis, and the CT50 value calculated from the resulting best-fit curve.

For series [5], the system named is Candida albicans (MCC 50319). Put plainly: Antimicrobial activity, minimum biocidal concentration. The following applies: C. albicans MCC 50319 (+), 1 h. Here is the method: as §2, with “The microbial cultures are diluted in sterile saline pH 4 to prepare inocula.” left out
Series [6] deals with Staphylococcus aureus (ATCC 29213). Put plainly: Antimicrobial activity, minimum bactericidal/biocidal concentration. The settings on record: S. aureus 29213, pH 4 (Sal), 1 h. Here is the method:
(§3) To determine antimicrobial activity, we use Escherichia coli (ATCC 25922), Staphylococcus aureus (ATCC 29213), Pseudomonas aeruginosa (ATCC 27853), and Candida albicans (ATCC 10231) in primary screening. In addition, we use Staphylococcus aureus (MCC 91731), Pseudomonas aeruginosa (MCC 4438), and Candida albicans (MCC 50319), provided by Alcon Laboratories, Fort Worth, Tex. The microbial cultures are diluted in sterile saline pH 4 to prepare inocula. Test compounds are titrated by stepwise two-fold dilutions in sterile saline pH 4, 1.0×10^5 to 1.0×10^6 Colony Forming Units (CFU)/mL bacteriamicrobe is added to each tube, mixed by gentle vortexing, and then incubated at room temperature for 1 h. Bacterial plating on Petri dishes (Tryptic Soy agar or Saboraud's Dextrose agar) is performed immediately after the designated exposure after neutralization of the test article dilutions in Dey-Engley Broth. Plates are incubated at 37° C., and the numbers of bacteria are counted by direct colony count to quantitate the surviving bacteria as CFU/mL. Positive growth controls are made with sterile 0.9% saline. All compounds are tested three times. The results are tabulated to show the comparison of antimicrobial effectiveness range of the compounds.

The subject of series [7] is Escherichia coli (ATCC 25922). Described as above. The following applies: E. coli 25922, pH 4 (Sal), 1 h. Here is the method: as §3
Series [8] concerns Candida albicans (ATCC 10231). Kind of series: Antimicrobial activity, minimum biocidal concentration. The settings on record: C. albicans 10231, pH 4 (Sal), 1 h. Here is the method: as §3

Marks after values point to notes of the source that are not given here.

Regarding `CC(Cc1ccc(Cl)cc1)(CS(=O)(=O)O)N(Cl)Cl` (stereo not shown) [Compound 570, 3-(4-chlorophenyl)-2-(dichloroamino)-2-methylpropane-1-sulfonic acid], the “cell toxicity range relative to antimicrobial range” value in the series with cells is on record as 1000 fold. The “tolerance of treatment, cell proliferation versus untreated control cells” value with cells (XTT assay) is “able to tolerate the treatment and be able to go through normal cell proliferation cycles”. In addition, the antimicrobial activity result in series [1] is “considerable in a μM range”.
In the case of `O=S(=O)(O)CC1(N(Cl)Cl)CCCCCC1` [Compound 601, (1-(Dichloroamino)cycloheptyl)methanesulfonic acid], the “Minimum Biocidal Concentration (MBC) (≧99.9% kill)” value in [2] (pH 4 (Sal)) is 0.25* μg/mL; in [3] (pH 4 (Sal)), 0.5# μg/mL.
Take `CC1(N(Cl)Cl)CCCCC1S(=O)(=O)O` (stereo not shown) [Compound 611, 2-(Dichloroamino)-2-methylcyclohexane-1-sulfonic acid]: the “CT50 (concentration that results in survival of 50% of the cells)” value in series [4] (pH 4 (Sal)) is 0.25 mM; in series [4] (pH 7 (PBS)), 4.6 mM. For the same compound, the “Minimum Biocidal Concentration (MBC) (≧99.9% kill)” value in series [2] (pH 4 (Sal)) is given as 1* μg/mL; in [2] (pH 7 (PBS)), 64* μg/mL; in series [3] (pH 4 (Sal)), 1# μg/mL; in series [3] (pH 7 (PBS)), 32# μg/mL; in series [5] (pH 4 (Sal)) it was 0.5+ μg/mL; in series [5] (pH 7 (PBS)), 64+ μg/mL.
With `CC(C)(COC(=O)CCS(=O)(=O)O)N(Cl)Cl` [Compound 614, 3-(2-(Dichloroamino)-2-methylpropoxy)-3-oxopropane-1-sulfonic acid], the results for the “CT50 (concentration that results in survival of 50% of the cells)” value in series [4] (pH 4 (Sal)) and in series [4] (pH 7 (PBS)) were 0.43 mM and 4.6 mM, respectively. The “Minimum Biocidal Concentration (MBC) (≧99.9% kill)” value in series [2] (pH 4 (Sal)) is 1* μg/mL; in series [2] (pH 7 (PBS)), 128* μg/mL; in series [3] (pH 4 (Sal)) it was 4# μg/mL; in series [3] (pH 7 (PBS)), 256# μg/mL; in [5] (pH 4 (Sal)) it was 4+ μg/mL; in [5] (pH 7 (PBS)), 512+ μg/mL.
On to `CC(C)(CS(=O)(=O)O)C(=O)OCC(C)(C)N(Cl)Cl` [Compound 625, 3-(2-(Dichloroamino)-2-methylpropoxy)-2,2-dimethyl-3-oxopropane-1-sulfonic acid], for which the “CT50 (concentration that results in survival of 50% of the cells)” value in [4] (pH 4 (Sal)) is 2.6 mM. Moreover, the “Minimum Biocidal Concentration (MBC) (≧99.9% kill)” value worked out at 8 µg/mL in series [6], 4 µg/mL in [7] and 16 µg/mL in [8].
For the compound `CNS(=O)(=O)CC(C)(C)N(Cl)Cl` [Compound 626, 2-(Dichloroamino)-N,2-dimethylpropane-1-sulfonamide], the figures for the “Minimum Biocidal Concentration (MBC) (≧99.9% kill)” value in [6], in series [7] and in series [8] were 0.5 µg/mL, 4 µg/mL and 8 µg/mL, respectively.
For `CC(=O)NS(=O)(=O)CC(C)(C)N(Cl)Cl` [Compound 627, N-(2-(Dichloroamino)-2-methylpropylsulfonyl)acetamide], the “Minimum Biocidal Concentration (MBC) (≧99.9% kill)” value worked out at 1 µg/mL in series [6], 2 µg/mL in series [7] and 64 µg/mL in series [8].
As for `CC(C)(CC(=O)OCCS(=O)(=O)O)N(Cl)Cl` [Compound 628, 2-(3-(Dichloroamino)-3-methylbutanoyloxy)ethanesulfonic acid], the “Minimum Biocidal Concentration (MBC) (≧99.9% kill)” value in series [6] is 2 µg/mL; in series [7], 2 µg/mL; in series [8], 64 µg/mL.
Regarding `CC(C)(CS(=O)(=O)CCS(=O)(=O)O)N(Cl)Cl` [Compound 630, 2-(2-(Dichloroamino)-2-methylpropylsulfonyl)ethanesulfonic acid], the results for the “Minimum Biocidal Concentration (MBC) (≧99.9% kill)” value in series [6], in series [7] and in series [8] were 8 µg/mL, 4 µg/mL and 64 µg/mL, respectively.
Consider `CC(=O)N1CCC(CS(=O)(=O)O)(N(Cl)Cl)CC1` [Compound 637, (1-Acetyl-4-(dichloroamino)piperidin-4-yl)methanesulfonic acid], for which the “Minimum Biocidal Concentration (MBC) (≧99.9% kill)” value in series [6] is 4 µg/mL; in [7], 16 µg/mL; in series [8] it was 128 µg/mL.
